Assay results as given in ChEMBL document CHEMBL3045812, “Synthesis of fatty acid Schiff base esters as potential antimicrobial and chemotherapeutic agents” (Med Chem Res, 2013).
Values after ≈ are worked out from the molar mass of the structure shown. Active and inactive are the calls of the source. The rule behind the calls is not given here.

How the values were obtained:
Staphylococcus aureus [1] = assay: Antibacterial activity against Staphylococcus aureus MTCC 96 after 24 hr by microtiter broth dilution method; format: functional
[Candida] aaseri [2] = Antifungal activity against Candida aaseri MTCC 1962 at 1.4 to 300 ug/ml after 24 hr by microtiter broth dilution method; format: functional, organism-based
HeLa = assay: Cytotoxicity against Homo sapiens (human) HeLa cells by tetrazolium-reduction assay; format: functional, cell-based
Pseudomonas aeruginosa = assay: Antibacterial activity against Pseudomonas aeruginosa MTCC 2453 after 24 hr by microtiter broth dilution method; format: functional
Candida albicans [3] = assay: Antifungal activity against Candida albicans MTCC 3018 at 1.4 to 300 ug/ml after 24 hr by microtiter broth dilution method; format: functional, organism-based
Candida albicans [4] = assay: Antifungal activity against Candida albicans MTCC 3017 at 1.4 to 300 ug/ml after 24 hr by microtiter broth dilution method; format: functional, organism-based
Candida albicans [5] = assay: Antifungal activity against Candida albicans MTCC 7315 at 1.4 to 300 ug/ml after 24 hr by microtiter broth dilution method; format: functional, organism-based
Bacillus subtilis = assay: Antibacterial activity against Bacillus subtilis MTCC 121 after 24 hr by microtiter broth dilution method; format: functional
N2a = assay: Cytotoxicity against Mus musculus (mouse) Neuro2a cells by tetrazolium-reduction assay; format: functional, cell-based
Candida albicans [6] = assay: Antifungal activity against Candida albicans MTCC 854 at 1.4 to 300 ug/ml after 24 hr by microtiter broth dilution method; format: functional, organism-based
A549 = assay: Cytotoxicity against Homo sapiens (human) A549 cells by tetrazolium-reduction assay; format: functional, cell-based
Nakaseomyces glabratus [7] = assay: Antifungal activity against Candida glabrata MTCC 3019 at 1.4 to 300 ug/ml after 24 hr by microtiter broth dilution method; format: functional, organism-based
Candida albicans [8] = assay: Antifungal activity against Candida albicans MTCC 1637 at 1.4 to 300 ug/ml after 24 hr by microtiter broth dilution method; format: functional, organism-based
Candida parapsilosis [9] = assay: Antifungal activity against Candida parapsilosis MTCC 1744 at 1.4 to 300 ug/ml after 24 hr by microtiter broth dilution method; format: functional, organism-based
Candida albicans [10] = assay: Antifungal activity against Candida albicans MTCC 227 at 1.4 to 300 ug/ml after 24 hr by microtiter broth dilution method; format: functional, organism-based
MCF7 = assay: Cytotoxicity against Homo sapiens (human) MCF7 cells by tetrazolium-reduction assay; format: functional, cell-based; conditions: Homo sapiens, MCF7; read-out: IC50
MDA-MB-231 = assay: Cytotoxicity against Homo sapiens (human) MDA-MB-231 cells by tetrazolium-reduction assay; format: functional, cell-based
Staphylococcus aureus [11] = assay: Antibacterial activity against Staphylococcus aureus MLS16 MTCC 2940 after 24 hr by microtiter broth dilution method; format: functional
Candida albicans [12] = assay: Antifungal activity against Candida albicans MTCC 3958 at 1.4 to 300 ug/ml after 24 hr by microtiter broth dilution method; format: functional, organism-based
HepG2 = assay: Cytotoxicity against Homo sapiens (human) HepG2 cells by tetrazolium-reduction assay; format: functional, cell-based
Candida albicans [13] = assay: Antifungal activity against Candida albicans MTCC 183 at 1.4 to 300 ug/ml after 24 hr by microtiter broth dilution method; format: functional, organism-based
Candida albicans [14] = assay: Antifungal activity against Candida albicans MTCC 1637 after 24 hr by microtiter broth dilution method; format: functional
Candida albicans [15] = assay: Antifungal activity against Candida albicans MTCC 854 after 24 hr by microtiter broth dilution method; format: functional
Raoultella planticola = assay: Antibacterial activity against Raoultella planticola MTCC 530 at 1.4 to 300 ug/ml after 24 hr by microtiter broth dilution method; format: functional, organism-based
Candida albicans [16] = assay: Antifungal activity against Candida albicans MTCC 3958 after 24 hr by microtiter broth dilution method; format: functional; conditions: MTCC 3958, 24 h
Candida albicans [17] = assay: Antifungal activity against Candida albicans MTCC 3018 after 24 hr by microtiter broth dilution method; format: functional; conditions: MTCC 3018, 24 h
Pichia sporocuriosa = assay: Antifungal activity against Issatchenkia hanoiensis MTCC 4755 after 24 hr by microtiter broth dilution method; format: functional; conditions: MTCC 4755, 24 h
Candida albicans [18] = assay: Antifungal activity against Candida albicans MTCC 227 after 24 hr by microtiter broth dilution method; format: functional; conditions: MTCC 227, 24 h
Nakaseomyces glabratus [19] = assay: Antifungal activity against Candida glabrata MTCC 3019 after 24 hr by microtiter broth dilution method; format: functional; conditions: MTCC 3019, 24 h
[Candida] aaseri [20] = Antifungal activity against Candida aaseri MTCC 1962 after 24 hr by microtiter broth dilution method; format: functional; conditions: Yamadazyma aaseri, MTCC 1962, 24 h
Candida albicans [21] = assay: Antifungal activity against Candida albicans MTCC 7315 after 24 hr by microtiter broth dilution method; format: functional; conditions: MTCC 7315, 24 h
Micrococcus luteus = assay: Antibacterial activity against Micrococcus luteus MTCC 2470 at 1.4 to 300 ug/ml after 24 hr by microtiter broth dilution method; format: functional, organism-based
Pichia kudriavzevii = assay: Antifungal activity against Pichia kudriavzevii MTCC 3020 after 24 hr by microtiter broth dilution method; format: functional; conditions: MTCC 3020, 24 h
Candida albicans [22] = assay: Antifungal activity against Candida albicans MTCC 183 after 24 hr by microtiter broth dilution method; format: functional; conditions: MTCC 183, 24 h
Escherichia coli = assay: Antibacterial activity against Escherichia coli MTCC 739 at 1.4 to 300 ug/ml after 24 hr by microtiter broth dilution method; format: functional, organism-based
Candida parapsilosis [23] = assay: Antifungal activity against Candida parapsilosis MTCC 1744 after 24 hr by microtiter broth dilution method; format: functional
Candida albicans [24] = assay: Antifungal activity against Candida albicans MTCC 3017 after 24 hr by microtiter broth dilution method; format: functional

Structure (SMILES) | MIC (Staphylococcus aureus [1]; MTCC 96, 24 h) [µg/mL] | MIC (Pseudomonas aeruginosa) | MIC (Bacillus subtilis) | MIC (Staphylococcus aureus [11]) | Activity ([Candida] aaseri [2]) | Activity (HeLa) | Activity (Candida albicans [3]) | Activity (Candida albicans [4]) | Activity (Candida albicans [5]) | Activity (N2a) | Activity (Candida albicans [6]) | Activity (A549) | Activity (Nakaseomyces glabratus [7]) | Activity (Candida albicans [8]) | Activity (Candida parapsilosis [9]) | Activity (Candida albicans [10]) | IC50 (MCF7) [µM] | IC50 (MDA-MB-231) [µM] | Activity (Candida albicans [12]) | Activity (HepG2) | also measured
COc1cccc2c1C(=O)c1c(O)c3c(c(O)c1C2=O)C[C@@](O)(C(=O)CO)C[C@@H]3O[C@H]1C[C@H](N)[C@H](O)[C@H](C)O1 [DOXORUBICIN] |  |  |  |  |  |  |  |  |  |  |  |  |  |  |  |  |  | < 1 |  |  | 
CCCCCCCC(=O)Oc1ccc(/C=N/Cc2cccnc2)cc1 | 37.5 (≈ 111 µM) |  |  |  |  | inactive |  |  |  | inactive |  | inactive |  |  |  |  | 12 | 15.8 |  | inactive | MIC (Candida albicans [14]): inactive; MIC (Candida albicans [15]): inactive; MIC (Pseudomonas aeruginosa; MTCC 2453, 24 h): 300 µg/mL (≈ 886 µM); Activity (Raoultella planticola): inactive; MIC (Candida albicans [16]): 150 µg/mL (≈ 443 µM); MIC (Candida albicans [17]): 300 µg/mL (≈ 886 µM); MIC (Pichia sporocuriosa): 300 µg/mL (≈ 886 µM); MIC (Bacillus subtilis; MTCC 121, 24 h): 300 µg/mL (≈ 886 µM); MIC (Candida albicans [18]): 150 µg/mL (≈ 443 µM); MIC (Nakaseomyces glabratus [19]): 150 µg/mL (≈ 443 µM); MIC ([Candida] aaseri [20]): 300 µg/mL (≈ 886 µM); MIC (Candida albicans [21]): 150 µg/mL (≈ 443 µM); Activity (Micrococcus luteus): inactive; MIC (Pichia kudriavzevii): 150 µg/mL (≈ 443 µM); MIC (Candida albicans [22]): 150 µg/mL (≈ 443 µM); MIC (Staphylococcus aureus [11]; MLS16 MTCC 2940, 24 h): 300 µg/mL (≈ 886 µM); Activity (Escherichia coli): inactive; MIC (Candida parapsilosis [23]): inactive; MIC (Candida albicans [24]): inactive

Further lines, with some results ahead:

MIC (Staphylococcus aureus [1]; MTCC 96, 24 h) [µg/mL] | MIC (Pseudomonas aeruginosa) | MIC (Bacillus subtilis) | MIC (Staphylococcus aureus [11]) | Structure (SMILES) | Activity ([Candida] aaseri [2]) | Activity (HeLa) | Activity (Candida albicans [3]) | Activity (Candida albicans [4]) | Activity (Candida albicans [5]) | Activity (N2a) | Activity (Candida albicans [6]) | Activity (A549) | Activity (Nakaseomyces glabratus [7]) | Activity (Candida albicans [8]) | Activity (Candida parapsilosis [9]) | Activity (Candida albicans [10]) | IC50 (MCF7) [µM] | IC50 (MDA-MB-231) [µM] | Activity (Candida albicans [12]) | Activity (HepG2) | also measured
75 (≈ 353 µM) | inactive | inactive | inactive | Oc1ccc(/C=N/Cc2cccnc2)cc1 | inactive | inactive | inactive | inactive | inactive | inactive | inactive | inactive | inactive | inactive | inactive | inactive | 12 | 16.9 | inactive | inactive | Activity (Candida albicans [13]): inactive
18.8 (≈ 30.5 µM) |  |  |  | NC[C@@H]1O[C@H](O[C@H]2[C@@H](O)[C@H](O[C@@H]3[C@@H](O)[C@H](N)C[C@H](N)[C@H]3O[C@H]3O[C@H](CN)[C@@H](O)[C@H](O)[C@H]3N)O[C@@H]2CO)[C@H](N)[C@@H](O)[C@@H]1O [FRAMYCETIN] |  |  |  |  |  |  |  |  |  |  |  |  |  |  |  |  | MIC (Pseudomonas aeruginosa; MTCC 2453, 24 h): 18.8 µg/mL (≈ 30.5 µM); MIC (Bacillus subtilis; MTCC 121, 24 h): 18.8 µg/mL (≈ 30.5 µM); MIC (Staphylococcus aureus [11]; MLS16 MTCC 2940, 24 h): 18.8 µg/mL (≈ 30.5 µM)
 | inactive | inactive | inactive | CCCCCCCCCCCCCCCC(=O)Oc1ccc(/C=N/Cc2cccnc2)cc1 | inactive | inactive | inactive | inactive | inactive | inactive | inactive | inactive | inactive | inactive | inactive | inactive |  |  | inactive | inactive | MIC (Staphylococcus aureus [1]): inactive; Activity (Raoultella planticola): inactive; Activity (Micrococcus luteus): inactive; Activity (Escherichia coli): inactive; Activity (Candida albicans [13]): inactive
